Experiment in all cases: Bliss excess, mean over the matrix (fraction); higher = more synergy
The test system of one experiment is 769-P (Kidney Carcinoma). The essentials:
(§1)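 After 24 hours at 37°C and 5% CO2 in 1536-well plates, cells in DMEM/F12 or RPMI plus 10% FBS received two-drug dose matrices for 72 hours. Viability came from CellTiter-Glo 2.0 luminescence and was scaled as inhibition, anchored at 0 by vehicle wells and at 1 by blank wells. Combination Emax is taken as the second-highest inhibition in the matrix, and Bliss excess as the observed combination effect less EA + EB − EA·EB, with EA and EB the single-agent effects.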

The test system of experiment [1] is A253 (Head and Neck Carcinoma). The essentials:
as §1

Experiment [2] deals with A2780 (Ovarian Carcinoma). The procedure, abridged:
as §1

In a further experiment the test system is AU565 (Breast Carcinoma). The procedure, abridged: as §1
The subject of experiment [3] is CA46 (Burkitt's Lymphoma). The procedure, abridged:
as §1

Experiment [4] has as its system CAL-27 (Oral Cavity Carcinoma). The procedure, abridged:
as §1

The test system of experiment [5] is CGTH-W-1 (Thyroid Gland Carcinoma). The essentials: as §1
In experiment [6] the test system is DMS-53 (Small Cell Lung Carcinoma). The essentials:
as §1

Experiment [7] relates to EPLC-272H (Other Solid Carcinomas). The essentials: as §1
The next experiment deals with EW-16 (Ewing's Sarcoma). The procedure, abridged:
as §1

The subject of experiment [8] is GCT (Other Solid Carcinomas). The procedure, abridged:
as §1

For experiment [9], the system named is HCC1428 (Breast Carcinoma). The procedure, abridged: as §1
The subject of experiment [10] is JIMT-1 (Breast Carcinoma). The essentials: as §1
In experiment [11] the test system is Jurkat (T-Lymphoblastic Leukemia). The procedure, abridged: as §1
Experiment [12] concerns LS-411N (Colorectal Carcinoma). The procedure, abridged: as §1
Experiment [13] concerns MDA-MB-436 (Breast Carcinoma). The essentials: as §1
Experiment [14] relates to NCI-H1651 (Lung Adenocarcinoma). The procedure, abridged:
as §1

In experiment [15] the test system is NCI-H441 (Lung Adenocarcinoma). The procedure, abridged: as §1
Another experiment relates to RH-41 (Rhabdomyosarcoma). The procedure, abridged: as §1
The test system of experiment [16] is huH-1 (Hepatocellular Carcinoma). The procedure, abridged:
as §1

In the case of `NC1(C(=O)N[C@@H](CCO)c2ccc(Cl)cc2)CCN(c2ncnc3[nH]ccc23)CC1` [Capivasertib] + CCN(CCO)CCCOc1ccc2c(Nc3cc(CC(=O)Nc4cccc(F)c4)[nH]n3)ncnc2c1 [AZD2811] (first compound max 10 µM, 7x7, partner max 1 µM), the Bliss excess is -0.0139 with 769-P (Kidney Carcinoma); -0.0346 in [1]; 0.05 in experiment [2]; -0.0229 with AU565 (Breast Carcinoma); -0.0519 in experiment [3]; -0.0783 in [4]. Besides, the Bliss excess is 0.0234 in [5]; 0.0225 in [6]; 0.0027 in experiment [7]; -0.014 in the experiment with EW-16 (Ewing's Sarcoma); -0.0017 in experiment [8]; 0.0066 in [9]. For the same compound, the Bliss excess in experiment [10] is 0.0154; in experiment [11] it was -0.0289; in [12] it was -0.0556; in experiment [13], -0.0424; in experiment [14] it was -0.0381; in experiment [15] it was -0.0425. The Bliss excess in the experiment with RH-41 (Rhabdomyosarcoma) is 0.0097; in experiment [16] it was -0.0695.
Take `Cc1c2c(nn1C)CSCc1cc(n(C)n1)CSc1cc(c3ccccc3c1)OCCCc1c(C(=O)O)n(C)c3c-2c(Cl)ccc13` [AZD5991] + Cn1cnc2c(F)c(Nc3ccc(Br)cc3Cl)c(C(=O)NOCCO)cc21 [Selumetinib] (first compound max 1 µM, 7x7, partner max 3 µM): the Bliss excess in the experiment on 769-P (Kidney Carcinoma) is -0.035; in experiment [1] it was 0.0716; in [2], -0.0361; in the experiment on AU565 (Breast Carcinoma), 0.0145; in experiment [3] it was -0.0195; in experiment [4], 0.0086. Besides, the Bliss excess in [5] was -0.0152; in experiment [6], 0.0572; in [7], 0.0197; in the experiment with EW-16 (Ewing's Sarcoma) it was 0.046; in experiment [8] it was 0.0058; in experiment [9] it was -0.0185. Besides, the Bliss excess in experiment [10] is -0.014; in experiment [11], 0.0294; in [12], 0.0493; in [13] it was -0.0127; in experiment [14] it was -0.0165; in experiment [15], -0.0311. Moreover, the Bliss excess was -0.0293 in the experiment with RH-41 (Rhabdomyosarcoma) and -0.0382 in experiment [16].
For `COc1cccc(OCCCN)c1-c1cc(Nc2cnc(C#N)cn2)n[nH]1` [Prexasertib] + O=C(c1cc(Cc2n[nH]c(=O)c3ccccc23)ccc1F)N1CCN(C(=O)C2CC2)CC1 [Olaparib] (first compound max 1 µM, 7x7, partner max 10 µM), the Bliss excess in the experiment with 769-P (Kidney Carcinoma) was -0.118; in experiment [1], -0.0617; in [2] it was -0.0298; with AU565 (Breast Carcinoma), -0.0097; in [3] it was -0.192; in experiment [4] it was -0.0113. Further, the Bliss excess was -0.0511 in experiment [5]; -0.0473 in experiment [6]; -0.0631 in experiment [7]; 0.0036 with EW-16 (Ewing's Sarcoma); 0.0068 in [8]; 0.0501 in experiment [9]. Moreover, the Bliss excess in experiment [10] is -0.0182; in experiment [11], -0.0054; in [12], -0.271; in [13] it was 0.0035; in experiment [14] it was -0.0471; in experiment [15], -0.101. Also, the Bliss excess in the experiment with RH-41 (Rhabdomyosarcoma) was -0.061; in [16], 0.0434.
For the compound `Cc1c2c(nn1C)CSCc1cc(n(C)n1)CSc1cc(c3ccccc3c1)OCCCc1c(C(=O)O)n(C)c3c-2c(Cl)ccc13` [AZD5991] + Cc1cc2ncnn2cc1Nc1ncc2c(n1)n(C1CCOCC1)c(=O)n2C [AZD7648] (first compound max 1 µM, 7x7, partner max 10 µM), the Bliss excess with 769-P (Kidney Carcinoma) was -0.0328; in experiment [1], -0.0286; in experiment [2], -0.0224; with AU565 (Breast Carcinoma) it was -0.0172; in [3], 0.0187; in [4], -0.057. The Bliss excess in experiment [5] was -0.0214; in [6], 0.0011; in [7], -0.0575; in the experiment with EW-16 (Ewing's Sarcoma), -0.0174; in experiment [8] it was -0.0702; in [9], 0.0018. Further, the Bliss excess was -0.0541 in experiment [10]; -0.0234 in experiment [11]; -0.0492 in [12]; -0.042 in experiment [13]; 0.0096 in experiment [14]; -0.0529 in experiment [15]. The Bliss excess is -0.0443 in the experiment with RH-41 (Rhabdomyosarcoma) and -0.0224 in [16].
With `CCN(CCO)CCCOc1ccc2c(Nc3cc(CC(=O)Nc4cccc(F)c4)[nH]n3)ncnc2c1` [AZD2811] + O=C(c1cc(Cc2n[nH]c(=O)c3ccccc23)ccc1F)N1CCN(C(=O)C2CC2)CC1 [Olaparib] (first compound max 1 µM, 7x7, partner max 10 µM), the Bliss excess in the experiment on 769-P (Kidney Carcinoma) was -0.018; in experiment [1] it was 0.0485; in experiment [2] it was 0.0453; in the experiment with AU565 (Breast Carcinoma) it was -0.011; in experiment [3], 0.02; in [4] it was 0.0484. For the same compound, the Bliss excess in [5] was 0.008; in [6] it was -0.014; in experiment [7], 0.0042; in the experiment with EW-16 (Ewing's Sarcoma) it was 0.0661; in [8], 0.0585; in experiment [9], -0.0081. The Bliss excess is -0.0127 in [10]; 0.0634 in [11]; -0.0082 in experiment [12]; -0.0533 in [13]; 0.0136 in experiment [14]; -0.0417 in [15]. Further, the figures for the Bliss excess (in the experiment on RH-41 (Rhabdomyosarcoma); in experiment [16]) were 0.0053 and -0.0014, respectively.
Turning to `Cn1cnc2c(F)c(Nc3ccc(Br)cc3Cl)c(C(=O)NOCCO)cc21` [Selumetinib] + C=CCn1c(=O)c2cnc(Nc3ccc(N4CCN(C)CC4)cc3)nc2n1-c1cccc(C(C)(C)O)n1 [AZD1775] (first compound max 10 µM, partner max 1 µM), the Bliss excess in the experiment on 769-P (Kidney Carcinoma) is -0.0944; in experiment [1], -0.0181; in experiment [2], -0.0352; in the experiment with AU565 (Breast Carcinoma) it was -0.0507; in experiment [3], -0.0625; in experiment [4], 0.0384. Besides, the Bliss excess in [5] was -0.0427; in experiment [6], -0.0174; in [7], -0.0607; in the experiment with EW-16 (Ewing's Sarcoma), -0.0214; in experiment [8], -0.0074; in experiment [9], -0.0409. The Bliss excess in experiment [10] was -0.0606; in experiment [11] it was -0.0309; in experiment [12] it was -0.0554; in [13], -0.0002; in experiment [14], -0.0692; in experiment [15], 0.0069. Besides, the Bliss excess with RH-41 (Rhabdomyosarcoma) is -0.0189; in experiment [16] it was -0.116.
Regarding `Cc1c2c(nn1C)CSCc1cc(n(C)n1)CSc1cc(c3ccccc3c1)OCCCc1c(C(=O)O)n(C)c3c-2c(Cl)ccc13` [AZD5991] + C=CCn1c(=O)c2cnc(Nc3ccc(N4CCN(C)CC4)cc3)nc2n1-c1cccc(C(C)(C)O)n1 [AZD1775] (first compound max 1 µM, partner max 1 µM), the Bliss excess was -0.071 in the experiment on 769-P (Kidney Carcinoma); 0.0398 in [1]; -0.0313 in experiment [2]; 0.0127 with AU565 (Breast Carcinoma); -0.0627 in experiment [3]; -0.0508 in [4]. Further, the Bliss excess in [5] is 0.005; in experiment [6], 0.0326; in experiment [7], 0.0188; in the experiment with EW-16 (Ewing's Sarcoma), -0.0392; in experiment [8] it was 0.0301; in [9] it was -0.0407. The Bliss excess in experiment [10] is 0.0464; in [11], -0.0066; in [12] it was 0.0376; in [13] it was 0.0087; in experiment [14] it was -0.11; in [15], 0.0171. Further, the Bliss excess is 0.0029 with RH-41 (Rhabdomyosarcoma) and -0.0405 in experiment [16].

The record behind these values is the supplement of paper PMC11061612.
